Experimental data as given in patent publication US20260315499A1, “2'- {HETEROCYCLYL (ARYL/ALKYL) METHYL} - CANNABIDIOL COMPOUNDS AND PROCESS FOR PREPARATION THEREOF” (COUNCIL OF SCIENTIFIC & INDUSTRIAL RESEARCH, priority 2023, published 2026).
Where two headings read alike, the source gives them in different places.

Tests used:
[1] = test system: mouse neuroblastoma cell line N2A; assay: In vitro neuroprotection against corticosterone, differentiated N2A, 48 hrs; type: cell-based; conditions: test compound 20 μM + Cort. 400 μM, read-out: % Cell viability ± SD, N2A
Description: Human neuroblastoma cells (SHSY5Y) and mouse neuroblastoma cells (N2A) were procured from American Type Culture Collection (ATCC). SHSY5Y cell cultures were maintained in DMEM F12 (Invitrogen) whereas N2A were cultured in DMEM (Invitrogen) with 10% Fetal Bovine Serum (Gibco) medium, subjected to differentiation to acquire neuronal morphology (employing differentiation media DMEM-F12, 3-5% FBS, (For differentiation, low concentration of FBS was used) and 50 μM retinoic acid). Differentiated cells were later seeded into 96 well plates, at a density of 1×10^4 before being incubated for 48 hrs with the synthesized library. The exhausted culture media was substituted with new culture media containing 0.5 mg/ml MTT dye. Eventually, the OD at 490 nm excitation was measured using a 96-well plate reader. The proportion of viable cells was determined as percentage of absorbance of untreated cultures relative to control.
In the next attempt, the neuroprotective properties of the generated library (20 μM, 48 hrs) were assessed employing differentiated human neuroblastoma cell line SHSY5Y and mouse neuroblastoma cell line N2A (Biomol Ther., 2022, 30(6), 570-575). The cells were assaulted with the neurotoxic corticosterone (Cort, 400 μM) for 24 hrs after the overnight preincubation of cells with test molecules as a selection criterion. […]

TrkB stable cells SHSY5Y = assay: Cytoprotective effect in TrkB stable cells SHSY5Y, 96 hrs; type: cell-based, human; conditions: 96 hrs; for viability at 20 µM: Homo sapiens, SH-SY5Y, 96 h, read-out: % Cell viability ± SD
Description: In another experiment, the cytoprotective effect of A1 as well as parent molecule B1 was determined in TrkB stable cells SHSY5Y.

[2] = test system: differentiated SHSY5Y cell cultures; assay: Neuroprotective potential in differentiated SHSY5Y after 96 hrs, concentration series with and without corticosterone; type: cell-based, human
Description: Furthermore, A1 intervention in presence of corticosterone evidenced neuroprotective effect against corticosterone induced impairment and cell death.

Anti BDNF [3] = assay: Survival pathway protein expression by western blotting in SHSY5Y; type: cell-based, human
Description: (§1) Here, A1 was tested to find its role in eliciting survival pathway proteins in differentiated human neuroblastoma cells in concentration and time dependent manner.
(§2) To investigate the effect of A1 on the survival proteins, SHSY5Y cell cultures were treated with different concentrations for 6 hrs and analyzed for the expression of survival proteins, including p-Erk 44/42, p-AKT 473, Anti BDNF, and p TrkB 816 and p TrKB 515 by western blotting.

p TrkB 515 = assay: as above; type: cell-based, human
Description: as §1, §2

p TrkB 816 = assay: as above; type: cell-based, human
Description: as §1, §2

p-Erk 44/42 [4] = assay: as above; type: cell-based, human; conditions: for Relative Protein Expression p ERK 44/42: 6 hrs
Description: as §1, §2

p-AKT 473 = assay: as above; type: cell-based, human
Description: as §1
To investigate the effect of A1 on the survival proteins, […] of survival proteins, including p-Erk 44/42, p-AKT 473, Anti BDNF, and p TrkB 816 and p TrKB 515 by western blotting.

[5] = test system: differentiated SHSY5Y cell cultures; assay: Neuroprotective potential in differentiated SHSY5Y after 96 hrs, concentration series with and without corticosterone; type: cell-based, human; remark: listed apart in the source
p-Erk 44/42 [6] = assay: Survival pathway protein expression by western blotting in SHSY5Y; type: cell-based, human; conditions: for Relative Protein Expression p ERK 44/42: A1 + Cort.
Anti BDNF [7] = assay: as above; type: cell-based, human; conditions: for Relative Protein Expression Anti BDNF: A1 + Cort.
[8] = different concentrations of A1, 6 hrs
[9] = A1 for multiple time spans, corticosterone

C=C(C)[C@@H]1CCC(C)=C[C@H]1c1c(O)cc(CCCCC)c(CN2CCOCC2)c1O [A1, 2′-(morpholin-1-ylmethyl)-cannabidiol]
viability at 20 µM [1]: 97.6 ± 1.97% | cell viability versus control (in words) (TrkB stable cells SHSY5Y): increased cell viability versus control | viability at 20 µM (TrkB stable cells SHSY5Y; test compound 20 μM + Cort. 400 μM): 97.2 ± 1.13% | viability at 20 µM (TrkB stable cells SHSY5Y; test compound alone, 20 μM): 110 ± 1.61% | viability at 1.25 µM ([2]; Homo sapiens, SH-SY5Y, 96 h, A1 1.25 μM + Cort 400 μM, 96 hrs): 83.8% | viability at 2.5 µM ([2]; Homo sapiens, SH-SY5Y, 96 h, A1 2.5 μM + Cort 400 μM, 96 hrs): 93.6% | viability at 10 µM ([2]; Homo sapiens, SH-SY5Y, 96 h, A1 10 μM + Cort 400 μM, 96 hrs): 113% | viability at 20 µM ([2]; Homo sapiens, SH-SY5Y, 96 h, A1 20 μM + Cort 400 μM, 96 hrs): 108% | viability at 40 µM ([2]; Homo sapiens, SH-SY5Y, 96 h, A1 40 μM + Cort 400 μM, 96 hrs): 102% | neuroprotection against corticosterone (in words) ([2]; in presence of corticosterone): substantial level of neuroprotection by significantly lowering the corticosterone cytotoxic activity | Relative Protein Expression Anti BDNF (Anti BDNF [3]; A1 5 μM, 6 hrs): 0.67 | Relative Protein Expression Anti BDNF (Anti BDNF [3]; A1 10 μM, 6 hrs): 1.48 | Relative Protein Expression Anti BDNF (Anti BDNF [3]; A1 + Cort., 6 hr): 39.43 | Relative Protein Expression Anti BDNF (Anti BDNF [3]; A1/Cort., A1 5 μM, 6 hrs): 0.44 | Relative Protein Expression Anti BDNF (Anti BDNF [3]; A1/Cort., A1 10 μM, 6 hrs): 1.34 | expression of Anti BDNF (in words) (Anti BDNF [3]; [8]): increased significantly | Relative Protein Expression p TrkB 515 (p TrkB 515; A1 10 μM, 6 hrs): 1.75 | Relative Protein Expression p TrkB 515 (p TrkB 515; A1 + Cort., 6 hr): 6.675 | Relative Protein Expression p TrkB 515 (p TrkB 515; A1/Cort., A1 5 μM, 6 hrs): 0.07 | Relative Protein Expression p TrkB 515 (p TrkB 515; A1/Cort., A1 10 μM, 6 hrs): 1.30 | expression of p TrkB 515 (in words) (p TrkB 515; [8]): increased significantly except for the expression of p-AKT 473 and p TrkB 515 | Relative Protein Expression p TrkB 816 (p TrkB 816; A1 5 μM, 6 hrs): 3.11 | Relative Protein Expression p TrkB 816 (p TrkB 816; A1 10 μM, 6 hrs): 2.91 | Relative Protein Expression p TrkB 816 (p TrkB 816; A1 + Cort., 6 hr): 23.0422 | Relative Protein Expression p TrkB 816 (p TrkB 816; A1/Cort., A1 5 μM, 6 hrs): 1.41 | Relative Protein Expression p TrkB 816 (p TrkB 816; A1/Cort., A1 10 μM, 6 hrs): 2.89 | expression of p TrkB 816 (in words) (p TrkB 816; [8]): increased significantly | Relative Protein Expression p ERK 44/42 (p-Erk 44/42 [4]; A1 5 μM): 4.51 | Relative Protein Expression p ERK 44/42 (p-Erk 44/42 [4]; A1 10 μM): 8.80 | Relative Protein Expression p ERK 44/42 (p-Erk 44/42 [4]; A1/Cort., A1 5 μM): 3.70 | Relative Protein Expression p ERK 44/42 (p-Erk 44/42 [4]; A1/Cort., A1 10 μM): 5.05 | expression of p-Erk 44/42 (in words) (p-Erk 44/42 [4]; [8]): increased significantly | Relative Protein Expression PAKT 473 (p-AKT 473; A1 5 μM, 6 hrs): 0.67 | Relative Protein Expression PAKT 473 (p-AKT 473; A1 10 μM, 6 hrs): 1.60 | Relative Protein Expression PAKT 473 (p-AKT 473; A1 + Cort., 0 hr): 1.00 | Relative Protein Expression PAKT 473 (p-AKT 473; A1 + Cort., 0.5 hr): 11.68 | Relative Protein Expression PAKT 473 (p-AKT 473; A1 + Cort., 1 hr): 14.78 | Relative Protein Expression PAKT 473 (p-AKT 473; A1 + Cort., 2 hr): 17.15 | Relative Protein Expression PAKT 473 (p-AKT 473; A1 + Cort., 4 hr): 26.33 | Relative Protein Expression PAKT 473 (p-AKT 473; A1 + Cort., 6 hr): 31.80 | Relative Protein Expression PAKT 473 (p-AKT 473; A1/Cort., A1 5 μM, 6 hrs): 0.60 | Relative Protein Expression PAKT 473 (p-AKT 473; A1/Cort., A1 10 μM, 6 hrs): 1.35 | expression of p-AKT 473 (in words) (p-AKT 473; [9]): remarkably increased | cell viability compared to positive control DHF (in words) ([5]; A1 alone 1.25, 2.5, 5, 10, 20 and 40 μM): no significant variation in cell viability when compared to positive control DHF | viability at 1.25 µM ([5]; Homo sapiens, SH-SY5Y, 96 h, A1 1.25 μM, without Cort): 102% | viability at 2.5 µM ([5]; Homo sapiens, SH-SY5Y, 96 h, A1 2.5 μM, without Cort): 108% | viability at 5 µM ([5]; Homo sapiens, SH-SY5Y, 96 h, A1 5 μM + Cort 400 μM, 96 hrs): 103% | viability at 5 µM ([5]; Homo sapiens, SH-SY5Y, 96 h, A1 5 μM, without Cort): 108% | viability at 10 µM ([5]; Homo sapiens, SH-SY5Y, 96 h, A1 10 μM, without Cort): 117% | viability at 20 µM ([5]; Homo sapiens, SH-SY5Y, 96 h, A1 20 μM, without Cort): 115% | viability at 40 µM ([5]; Homo sapiens, SH-SY5Y, 96 h, A1 40 μM, without Cort): 115% | toxicity (in words) ([5]; concentrations as high as 40 μM, up to 96 hrs, with and without corticosterone): non-toxic even at concentrations as high as 40 μM | Relative Protein Expression p ERK 44/42 (p-Erk 44/42 [6]; 0 hr): 1.00 | Relative Protein Expression p ERK 44/42 (p-Erk 44/42 [6]; 0.5 hr): 1.32 | Relative Protein Expression p ERK 44/42 (p-Erk 44/42 [6]; 1 hr): 3.29 | Relative Protein Expression p ERK 44/42 (p-Erk 44/42 [6]; 2 hr): 8.33 | Relative Protein Expression p ERK 44/42 (p-Erk 44/42 [6]; 4 hr): 9.69 | Relative Protein Expression p ERK 44/42 (p-Erk 44/42 [6]; 6 hr): 10.62 | expression of p-Erk 44/42 (in words) (p-Erk 44/42 [6]; [9]): remarkably increased | Relative Protein Expression Anti BDNF (Anti BDNF [7]; 0 hr): 1.029 | Relative Protein Expression Anti BDNF (Anti BDNF [7]; 0.5 hr): 14.02 | Relative Protein Expression Anti BDNF (Anti BDNF [7]; 1 hr): 28.11 | Relative Protein Expression Anti BDNF (Anti BDNF [7]; 2 hr): 51.76 | Relative Protein Expression Anti BDNF (Anti BDNF [7]; 4 hr): 41.62 | expression of Anti BDNF (in words) (Anti BDNF [7]; [9]): remarkably increased
